Assay results as given in PMC10849753, “Antiproliferative activity of platinum(II) and copper(II) complexes containing novel biquinoxaline ligands” (Metallomics: Integrated Biometal Science, 2024).

Tested on: A172, LN229, U87, A549, Hela, PC-3, and MDA-231 cells
Assay: ROS production, DCFDA assay, all used cell lines
Format: cell-based, human
Settings: positive control at 500 μM concentration
Description: The reactive oxygen species (ROS) formation on the selected cell lines upon exposure to the synthesized Cu(II) and Pt(II) complexes was investigated using the oxidation-sensitive dye, 2ʹ,7ʹ-dichlorofluorescein diacetate (DCFDA, #D6883 Sigma-Aldrich). The cell lines (A172, LN229, U87, HeLa, MDA-231, PC-3, A549, and CHO-K1) were seeded (6 × 10^3 cells/well) into the 96-well plates and incubated at 37°C and 5% CO2 for 24 h. After that, the Cu(II) and Pt(II) complexes, at a concentration range of 6.25 to 100 μM, were added to the cell monolayers. Hydrogen peroxide (H2O2), at concentrations from 50 to 500 μM, was utilized as a positive control. The following day, 5 μM of DCFDA in PBS was added to the cell monolayers and, then, the plate was incubated for 30–45 min. Consequently, the fluorescence intensity was measured with 485 nm excitation and 535 nm emission wavelengths using a microplate reader. The fluorescence values of each treatment were normalized to the negative control, including only growth medium without any treatment. The assay was repeated in triplicate.

**Q.** `OO` [H2O2, Hydrogen peroxide, reference compound] was tested. Which ROS generation did it give?
**A.** 3 fold
